Test results reported in ChEMBL document CHEMBL1629514, “Synthesis, biological activity, and evaluation of the mode of action of novel antitubercular benzofurobenzopyrans substituted on A ring” (Eur J Med Chem, 2010).
≈ marks a conversion by molar mass, not a printed value.

system: Mycobacterium tuberculosis; assay: Antimycobacterial activity against Mycobacterium bovis BCG after 6 days by Microdilution Resazurin assay; assay type: functional; details: variant bovis BCG, 144 h

Row | Structure (SMILES) | MIC95 [µM]
1 | CC(=O)c1ccc2oc3ccc4c(c3c2c1)CCC(C)(C)O4 | > 340
2 | CC1(C)C=Cc2c(ccc3oc4c(Cl)cccc4c23)O1 | > 350
3 | CC1(C)C=Cc2c(ccc3oc4cc(Br)ccc4c23)O1 | 150 (≈ 49.4 µg/mL)
4 | CC1(C)C=Cc2c(ccc3oc4ccc(Cl)cc4c23)O1 | 100 (≈ 28.5 µg/mL)
5 | CC1(C)C=Cc2c(ccc3oc4cccc(Cl)c4c23)O1 | > 350
6 | CC1(C)C=Cc2c(ccc3oc4c(O)cccc4c23)O1 | 94 (≈ 25 µg/mL)
7 | CC1(C)C=Cc2c(ccc3oc4cc(O)ccc4c23)O1 | 94 (≈ 25 µg/mL)
8 | CC1(C)C=Cc2c(ccc3oc4ccc(O)cc4c23)O1 | 79 (≈ 21 µg/mL)
9 | CC1(C)C=Cc2c(ccc3oc4cccc(O)c4c23)O1 | 94 (≈ 25 µg/mL)
10 | CC1(C)CCc2c(ccc3oc4ccc(O)cc4c23)O1 | 140 (≈ 37.6 µg/mL)
11 | COc1cccc2c1oc1ccc3c(c12)C=CC(C)(C)O3 | 89 (≈ 24.9 µg/mL)
12 | COc1ccc2c(c1)oc1ccc3c(c12)C=CC(C)(C)O3 | > 360
13 | COc1ccc2oc3ccc4c(c3c2c1)C=CC(C)(C)O4 | 89 (≈ 24.9 µg/mL)
14 | COc1cccc2oc3ccc4c(c3c12)C=CC(C)(C)O4 | 89 (≈ 24.9 µg/mL)
15 | COc1ccc2oc3cc4c(cc3c2c1)OC(C)(C)C=C4 | 89 (≈ 24.9 µg/mL)
16 | CC1(C)C=Cc2c(ccc3c2oc2ccc4c(c23)C=CC(C)(C)O4)O1 | > 300
17 | CC1(C)C=Cc2c(ccc3oc4cc(-c5ccc6c(c5)oc5ccc7c(c56)C=CC(C)(C)O7)ccc4c23)O1 | > 200
18 | CC1(C)C=Cc2c(ccc3oc4ccccc4c23)O1 | 100 (≈ 25 µg/mL)
19 | NNC(=O)c1ccncc1 [ISONIAZID] | 4.4 (≈ 0.603 µg/mL)
